Data as given in patent publication US20200278355A1, “CONJUGATED PROTEINS AND USES THEREOF” (THE SCRIPPS RESEARCH INSTITUTE, priority 2017, published 2020).

Key:
[1] = target: T1, TXNDC12 (Homo sapiens, UniProt O95881); assay: ABPP-SILAC BPK-29yne competition in H460 cells: TXNDC12; assay type: cell-based; conditions: 20 μM
T1 construct: endogenous in cells; host or cells: H460
Experimental: Isotopically labeled H460 cell lines were generated as described above. Light and heavy cells were treated with compounds (20 μM) or DMSO, respectively, for 3 h, followed by labeling with the BPK-29yne (5 μM) for 30 min. Cells were washed once ice-cold PBS and lysed in 1% Triton 100-X dissolved in PBS with protease inhibitors (Sigma) by sonication. Lysate was adjusted to 1.5 mg ml^−1 in 500 μL. Samples were conjugated by CuAAC to Biotin-PEG4-azide (5 μL of 10 mM stocks in DMSO, final concentration=100 μM). CuAAC “click” mix contained TCEP, TBTA ligand and CuSO4 as detailed for isoTOP-ABPP sample preparation. Samples were further processed as detailed in: isoTOP-ABPP streptavidin enrichment and isoTOP-ABPP trypsin TEV digestion with the following exception: after overnight incubation at 37° C. with trypsin, tryptic digests were separated from the beads with Micro Bio-Spin columns (Bio-Rad) by centrifugation (1,000×g, 1 min). Beads were rinsed once with water (200 μL) and combined with tryptic digests. […]
The MS2 spectra data were extracted and searched using RAW Convertor and ProLuCID algorithm as described in isoTOP-ABPP peptide and protein quantification. […] Ratios of heavy/light (DMSO/test compound) peaks were calculated using in-house CIMAGE software. […] The mean R values and standard deviation for multiple biological experiments were calculated from the average ratios from each replicate. […]

[2] = target: T2, TXNRD1 (Homo sapiens, UniProt Q16881); assay: isoTOP-ABPP of compound-treated H460 cells: TXNRD1; assay type: cell-based; conditions: TXNRD1 U648; 40 μM
T2 construct: endogenous in cells; host or cells: H460
T2 sequence (Q16881 whole entry): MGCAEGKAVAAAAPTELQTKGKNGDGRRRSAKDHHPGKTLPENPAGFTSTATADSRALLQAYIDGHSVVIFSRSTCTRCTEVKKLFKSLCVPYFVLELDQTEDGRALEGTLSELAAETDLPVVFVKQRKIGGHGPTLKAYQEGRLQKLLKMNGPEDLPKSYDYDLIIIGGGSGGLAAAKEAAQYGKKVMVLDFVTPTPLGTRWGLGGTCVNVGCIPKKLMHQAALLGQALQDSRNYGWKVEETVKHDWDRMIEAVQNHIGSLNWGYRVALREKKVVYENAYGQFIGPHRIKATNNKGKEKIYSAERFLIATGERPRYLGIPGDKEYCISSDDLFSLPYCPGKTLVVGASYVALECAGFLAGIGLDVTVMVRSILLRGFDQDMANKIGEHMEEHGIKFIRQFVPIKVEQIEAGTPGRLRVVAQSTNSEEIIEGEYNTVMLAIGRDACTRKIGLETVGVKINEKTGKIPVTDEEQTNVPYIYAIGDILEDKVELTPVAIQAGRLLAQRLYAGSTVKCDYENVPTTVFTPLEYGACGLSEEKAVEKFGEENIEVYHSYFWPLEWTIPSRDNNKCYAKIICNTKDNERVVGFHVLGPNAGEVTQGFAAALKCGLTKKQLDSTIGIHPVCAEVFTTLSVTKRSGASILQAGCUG
Experimental: For analysis of NR0B1 ligands or control compound reactivity, H460 cells or H460 cells expressing luciferase in a 10 cm plate were incubated with indicated compounds in serum/dye-free RPMI for 3 hours at 37° C. Cells were washed once ice-cold PBS and lysed in 1% Triton X-100 dissolved in PBS with protease inhibitors (Sigma) by sonication. Samples were clarified by centrifugation for 10 min at 16,000×g. Lysate was adjusted to 1.5 mg ml^−1 in 500 μL.
Samples were labeled for 1 h at ambient temperature with 100 μM iodoacetamide alkyne (1, IA-alkyne, 5 μL of 10 mM stock in DMSO). Samples were conjugated by copper-catalyzed azide-alkyne cycloaddition (CuAAC) to isotopically labeled, TEV-cleavable tags (TEV-tags). Heavy CuAAC reaction mixtures was added to the DMSO-treated or shGFP control samples and light CuAAC reaction mixture was added to compound-treated or shNRF2 samples. The CuAAC reaction mixture consisted of TEV tags (light or heavy, 10 μL of 5 mM stocks in DMSO, final concentration=100 μM), 1 mM tris(2-carboxyethyl)phosphine hydrochloride (TCEP; fresh 50× stock in water, final concentration=1 mM), ligand (17× stock in DMSO:t-butanol 1:4, final concentration=100 μM) and 1 mM CuSO4 (50× stock in water, final concentration=1 mM). The samples were allowed to react for 1 h at which point the samples were centrifuged (16,000×g, 5 min, 4° C.). […]

T1 sequence (O95881 27-172): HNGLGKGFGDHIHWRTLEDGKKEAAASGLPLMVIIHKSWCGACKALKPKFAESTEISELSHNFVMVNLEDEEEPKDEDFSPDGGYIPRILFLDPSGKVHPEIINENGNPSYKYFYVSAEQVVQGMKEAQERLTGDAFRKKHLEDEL

Q: Which “BPK-29-competed BPK-29yne analysis” value [1] does the source give for O=C(c1ccc(N2CCOCC2)cc1)N1CCCC(N(Cc2ccccc2)C(=O)CCl)CC1 (centres unmarked) [BPK-29, N-benzyl-2-chloro-N-(1-(4-morpholinobenzoyl)azepan-4-yl)acetamide] here?
A: Yes (Competed defined as showing R value ≥ 2.5 at 20 μM of test compound)

Q: And the “BPK-29-competed isoTOP-ABPP analysis” value [2]?
A: Yes (Competed defined as showing R value ≥ 3.0 at 40 μM of test compound)
